Experimental data taken from patent publication US6361815B1, “Products comprising trihydroxystilbenes and derivatives thereof and methods for their manufacture and use” (Pure World Botanicals, Inc., priority 1998, dated 2002).
Structures can show the parent of a compound that is named as a salt.

What was measured:
PC-3 = experiment: MTT assay, 6-cell line test, prostate PC-3; format: cell-based, human; conditions: PC-3 cells
Method: (§1) Cells were planted in 96 well flat bottom plates with low evaporation lids. Three cell lines per plate were seeded in 0.2 ml medium per well. Each cell line was planted at the optimum concentration for its particular growth rate: H-29 and A-549, 5000 c/ml, MCF-7, 15000 c/well, KB and similar cells, 2500 c/ml, P388 and similar cells, 15000 c/ml. Products were tested at various dilutions (at least ten) to determine the ED 50.

A-478 = experiment: MTT assay, 6-cell line test, kidney A-478; format: cell-based, human; conditions: A-478 cells
Method: as §1

HT-29 = experiment: MTT assay, 6-cell line test, colon HT-29; format: cell-based, human; conditions: HT-29 cells
Method: as §1

PACA-2 = experiment: MTT assay, 6-cell line test, pancreatic PACA-2; format: cell-based, human; conditions: PACA-2 cells
Method: as §1

MCF-7 = experiment: MTT assay, 6-cell line test, breast MCF-7; format: cell-based, human; conditions: MCF-7 cells
Method: as §1

A-549 = experiment: MTT assay, 6-cell line test, lung A-549; format: cell-based, human; conditions: A-549 cells
Method: as §1

[1] = test system: DMBA-induced mammary tumors; experiment: DMBA-induced mammary carcinogenesis in rats; format: in vivo, Female Sprague-Dawley rats; conditions: for Rat with Tumors, percentage in parentheses (reduction versus Control Diet + DMBA, not explained) / Tumors Per Rat, percentage in parentheses (reduction versus Control Diet + DMBA, not explained): Sulforaphane 50 mg/kg by gavage + DMBA; for Rat with Tumors (%) / Tumors Per Rat: Sulforaphane 50 mg/kg by gavage once a day, days 46-51 of age, + DMBA
Method: Sulforaphane was orally administered by gavage (50 mg / kg body weight in 0.1 ml corn oil) to rats once a day at 46th, 47th, 48th, 49th, 50th and 51st days of their age. […] Palpable mammary tumors were counted every week after DMBA administration.

[2] = test system: carrageenan-induced pedal edema; conditions: rats, cited from earlier work

| SMILES | Prostrate PC-3 ED 50 (PC-3) | Kidney A-478 ED 50 (A-478) | Colon HT-29 ED 50 (HT-29) | Pancreatic PACA-2 ED 50 (PACA-2) | Breast MCF-7 ED 50 (MCF-7) | Lung A-549 ED 50 (A-549) | further results |
| --- | --- | --- | --- | --- | --- | --- | --- |
| OC[C@H]1O[C@@H](Oc2cc(O)cc(/C=C/c3ccc(O)cc3)c2)[C@H](O)[C@@H](O)[C@@H]1O (relative stereo) [Fifth Product, 90% Piceid, 3,4′5-trans-trihydroxystilbene-3-β-mono-D-glucoside] | 80.58 mg/L | 34.95 mg/L | 79.20 mg/L | 40.98 mg/L | 100 mg/L | 35.77 mg/L | – |
| C[S+]([O-])CCCCN=C=S (stereo not drawn) [Sulforaphane] | – | – | – | – | – | – | Rat with Tumors, percentage in parentheses (reduction versus Control Diet + DMBA, not explained) ([1]; 9 weeks after DMBA): (100%); Tumors Per Rat, percentage in parentheses (reduction versus Control Diet + DMBA, not explained) ([1]; 9 weeks after DMBA): (100%); Rat with Tumors (%) ([1]; 9 weeks after DMBA): 0%; Tumors Per Rat ([1]; 9 weeks after DMBA): 0; Rat with Tumors, percentage in parentheses (reduction versus Control Diet + DMBA, not explained) ([1]; 14 weeks after DMBA): (32%); Tumors Per Rat, percentage in parentheses (reduction versus Control Diet + DMBA, not explained) ([1]; 14 weeks after DMBA): (43%); Rat with Tumors (%) ([1]; 14 weeks after DMBA): 13%; Tumors Per Rat ([1]; 14 weeks after DMBA): 0.13 ± 0.08; Rat with Tumors, percentage in parentheses (reduction versus Control Diet + DMBA, not explained) ([1]; 22 weeks after DMBA): (38%); Tumors Per Rat, percentage in parentheses (reduction versus Control Diet + DMBA, not explained) ([1]; 22 weeks after DMBA): (10%); Rat with Tumors (%) ([1]; 22 weeks after DMBA): 31%; Tumors Per Rat ([1]; 22 weeks after DMBA): 0.36 ± 0.33 |
| COc1cccc2c1C(=O)c1c(O)c3c(c(O)c1C2=O)C[C@@](O)(C(=O)CO)C[C@@H]3O[C@H]1C[C@H](N)[C@H](O)[C@H](C)O1 [Doxorubicin HCL] | 0.0281 mg/L | 0.00359 mg/L | 0.022 mg/L | 0.00522 mg/L | 0.107 mg/L | 0.00316 mg/L | – |
| Oc1ccc(C=Cc2cc(O)cc(O)c2)cc1 [resveratrol, 3,4′,5-trihydroxystilbene] | – | – | – | – | – | – | Pedal edema, acute phase ([2]; acute phase (3 to 24 hours)): significantly reduced pedal edema; Pedal edema, chronic phase ([2]; chronic phase (24 to 144 hours)): significantly reduced pedal edema; Edema-suppressing activity compared with reference drugs ([2]; versus phenylbutazone and indomethacin): greater than that of phenylbutazone and similar to that of indomethacin |
| Oc1ccc(/C=C/c2cc(O)cc(O)c2)cc1 [3,4′,5-trihydroxy-trans-stilbene] | 100 mg/L | 0.74 mg/L | 1.66 mg/L | 3.55 mg/L | 4.23 mg/L | 0.326 mg/L | – |
